From patent US20200055817A1 (AbbVie Deutschland GmbH & Co. KG, priority 2016, published 2020)

Tests used:
Type in all cases: cell-based
[1] = target: T1, human EDG8 (S1PR5) receptor (Homo sapiens, UniProt Q9H228); assay: Aequorin assay, agonist potency, CHO-A21-EDG8#12 cells; details: agonist mode, aequorin luminescence; read-out: S1P5 EC50 range #
T1 construct: carries the transgenes human EDG8 (S1PR5) receptor (Acession number NP_110387.1); expressed in transfected cells; host or cells: CHO-A21-EDG8#12 (CHO clone co-expressing mitochondrial aequorin and chimaeric Gaqi5)
Protocol: (§1) Agonistic activity was measured as described below.
(§2) Cell clone CHO-A21-Edg1#17 carries the transgenes human EDG1 (S1PR1) receptor (Accession number NP_001391.2), mitochondrially targeted Aequorin (active part corresponds to accession number 1SL8_A) and chimaeric Gaqi5=Gaq modified with the 5 C-terminal amino-acids replaced with those of the Gai protein (DCGLF). CHO-A2-S1P3 Mix is a cell pool ectopically expressing human EDG3 (S1PR3) receptor (Accession number NP_005217.2) mitochondrially targeted Aequorin (active part has a sequence similar to accession number AY601106.1) and GNA16 (Accession number NP_002059.3). Cell clone CHO-A21-EDG8#12 carries the transgenes human EDG8 (S1PR5) receptor (Acession number NP_110387.1), mitochondrially expressed Aequorin (active part corresponds to accession number 1SL8_A) and chimaeric Gaqi5 (Gaq modified to present the 5 last amino-acids of the Gai protein “DCGLF”; see above). Cells are grown to mid-log phase in culture medium (HAM's F12, 10% FBS, 100 IU/mL penicillin, 100 μg/mL streptomycin, 250 μg/mL Zeocin, 400 μg/mL G418). 18 hours prior to frozen cells preparation, the medium is changed to remove the antibiotics.
(§3) 18 hours prior to the test, vials of frozen cells are quickly thawed in a 37° C. water bath, cells are recovered by centrifugation and resuspended in assay buffer (DMEM/HAM's F12 with HEPES, without phenol red+0.1% fatty acid-free BSA). Cells are gently agitated in suspension overnight at RT in presence of 5 μM of Coelenterazine h (Molecular Probes). On the day of the test, cells are diluted to their final working concentrations in assay buffer and agitated in suspension for 1 h at RT. Cells are then placed in the luminescence reader (Hamamatsu Functional Drug Screening System 6000, FDSS6000). During cells incubation, compounds are prepared in 100% DMSO, and subsequently diluted in assay buffer. Compounds are then dispensed in the assay plate (black, clear-bottom, 384-well plate). After binding of agonists to the human S1P receptor the intracellular calcium concentration increases and binding of calcium to the Aequorin/Coelenterazine complex leads to an oxidation reaction of coelenterazine, which results in the production of Aequorin, coelenteramide, CO2 and light (Dmax 469 nm). The luminescent response is dependent on the agonist concentration. For agonist testing, 30 μL of cell suspension are injected on 30 μL of test compound or reference agonist in the assay plate. The resulting emission of light is recorded for 90 seconds using the FDSS6000. Dose response curves with the reference compounds are performed before testing the compounds. S1P is the reference agonist and JTE-013 the reference antagonist for S1P2.
(§4) Luminescence data are integrated over the reading interval for agonist and antagonist modes. To standardize the emission of recorded light (determination of the “100% signal”) across plates and across different experiments, some of the wells contain 100 μM digitonin or a saturating concentration of ATP (20 μM). Plates also contain the reference agonist at a concentration equivalent to the EC80 obtained during the test validation and the EC100. Dose-response data from test compounds were analyzed with XLfit (IDBS) software using nonlinear regression applied to a sigmoidal dose-response model and the following equation: […]

[2] = target: T2, human EDG1 (S1PR1) receptor (Homo sapiens, UniProt P21453); assay: Aequorin assay, agonist potency, CHO-A21-Edg1#17 cells; details: agonist mode, aequorin luminescence; read-out: S1P1 EC50
T2 construct: expressed in transfected cells; host or cells: CHO-A21-Edg1#17 (CHO clone co-expressing mitochondrial aequorin and chimaeric Gaqi5)
Protocol: as §1, §2, §3, §4

[3] = target: T3, S1P4 (Homo sapiens, UniProt O95977); assay: Aequorin assay, agonist potency, S1P4; details: agonist mode, aequorin luminescence
T3 sequence (O95977 1-384): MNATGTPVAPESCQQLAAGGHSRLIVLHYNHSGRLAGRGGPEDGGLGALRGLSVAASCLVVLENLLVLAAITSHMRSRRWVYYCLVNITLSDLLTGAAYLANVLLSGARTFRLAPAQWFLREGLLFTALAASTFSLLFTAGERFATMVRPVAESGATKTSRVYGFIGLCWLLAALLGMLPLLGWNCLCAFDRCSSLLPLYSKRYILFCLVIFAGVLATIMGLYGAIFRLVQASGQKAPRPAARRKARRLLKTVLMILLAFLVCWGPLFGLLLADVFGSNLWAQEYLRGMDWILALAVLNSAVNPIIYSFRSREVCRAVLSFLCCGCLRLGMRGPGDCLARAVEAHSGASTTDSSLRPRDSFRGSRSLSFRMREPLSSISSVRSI
Protocol: as §1, §3, §4

T2 sequence (P21453 whole entry): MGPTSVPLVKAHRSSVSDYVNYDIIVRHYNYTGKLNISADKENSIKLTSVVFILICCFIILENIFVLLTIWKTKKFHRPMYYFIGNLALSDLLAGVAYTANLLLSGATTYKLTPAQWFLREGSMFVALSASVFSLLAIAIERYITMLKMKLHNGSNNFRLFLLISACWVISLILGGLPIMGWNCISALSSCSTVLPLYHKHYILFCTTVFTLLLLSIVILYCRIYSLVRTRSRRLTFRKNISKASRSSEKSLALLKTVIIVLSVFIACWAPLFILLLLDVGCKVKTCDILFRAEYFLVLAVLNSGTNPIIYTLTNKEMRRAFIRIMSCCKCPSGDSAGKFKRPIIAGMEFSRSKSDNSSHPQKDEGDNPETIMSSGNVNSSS
T1 sequence (Q9H228 whole entry): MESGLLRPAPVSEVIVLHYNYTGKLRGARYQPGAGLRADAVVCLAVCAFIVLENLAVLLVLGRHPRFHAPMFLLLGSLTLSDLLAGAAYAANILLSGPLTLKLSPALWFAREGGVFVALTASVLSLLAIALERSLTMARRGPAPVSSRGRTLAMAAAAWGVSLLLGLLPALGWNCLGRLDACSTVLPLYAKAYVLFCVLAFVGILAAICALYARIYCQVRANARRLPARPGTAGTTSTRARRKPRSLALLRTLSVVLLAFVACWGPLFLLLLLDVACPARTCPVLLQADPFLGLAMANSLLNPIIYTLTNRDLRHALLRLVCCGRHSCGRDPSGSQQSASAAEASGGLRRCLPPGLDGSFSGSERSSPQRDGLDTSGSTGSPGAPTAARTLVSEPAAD

Structure (SMILES) | EC50 [1] [nM] | EC50 [2] [nM] | EC50 [3] [nM]
O=C(O)C1(CN2CC3(Cc4ccc(OCc5cc(Cl)cnc5Cl)cc4C3)C2)CC1 [Example 124, 1-((5′-((2,5-dichloropyridin-3-yl)methoxy)-1′,3′-dihydrospiro[azetidine-3,2′-inden]-1-yl)methyl)cyclopropanecarboxylic acid] | 1000 to 10000 | > 1000 | < 1000
CCCc1ccc(COc2ccc3c(c2)CC2(C3)CN(CC3(C(=O)O)CC3)C2)c(OC)c1 [Example 2, 1-((5′-((2-methoxy-4-propylbenzyl)oxy)-1′,3′-dihydrospiro[azetidine-3,2′-inden]-1-yl)methyl)cyclopropanecarboxylic acid] | 1000 to 10000 | > 1000 | < 1000
O=C(O)CN1CC2(Cc3ccc(C#Cc4ccc(OC5CCCC5)nc4)cc3C2)C1 [Example 78, 2-(5′-((6-(cyclopentyloxy)pyridin-3-yl)ethynyl)-1′,3′-dihydrospiro[azetidine-3,2′-inden]-1-yl)acetic acid] | ≤ 10 | < 1000 | < 1000
O=C(O)C1(CN2CC3(Cc4ccc(OCCc5c[nH]c6ccccc56)cc4C3)C2)CC1 [Example 144, 1-((5′-(2-(1H-indol-3-yl)ethoxy)-1′,3′-dihydrospiro[azetidine-3,2′-inden]-1-yl)methyl)cyclopropanecarboxylic acid] | 1000 to 10000 | > 1000 | > 1000
O=C(O)CN1CC2(Cc3ccc(C#Cc4ccccc4Cl)cc3C2)C1 [Example 80, 2-(5′-((2-chlorophenyl)ethynyl)-1′,3′-dihydrospiro[azetidine-3,2′-inden]-1-yl)acetic acid] | ≤ 10 | > 1000 | < 1000
O=C(O)CN1CC2(Cc3ccc(C#Cc4cccc(Cl)c4)cc3O2)C1 [Example 152, 2-(6′-((3-chlorophenyl)ethynyl)-3′H-spiro[azetidine-3,2′-benzofuran]-1-yl)acetic acid] | ≤ 10 | > 1000 | < 1000
O=C(O)C1(CN2CC3(Cc4ccc(OCCc5ccccc5)cc4C3)C2)CC1 [Example 54, 1-((5′-phenethoxy-1′,3′-dihydrospiro[azetidine-3,2′-inden]-1-yl)methyl)cyclopropanecarboxylic acid] | 1000 to 10000 | > 1000 | < 1000
O=C(O)CN1CC2(Cc3ccc(OCc4c(F)cccc4Cl)cc3C2)C1 [Example 18, 2,2,2-trifluoroacetic acid compound with 2-(5′-((2-chloro-6-fluorobenzyl)oxy)-1′,3′-dihydrospiro[azetidine-3,2′-inden]-1-yl)acetic acid (1:1)] | ≤ 10 | > 1000 | < 1000
COc1ccc(C#Cc2ccc3c(c2)CC2(C3)CN(C3CC(C(=O)O)C3)C2)c(C)c1 (stereo not drawn) [Example 101, 3-(5′-((4-methoxy-2-methylphenyl)ethynyl)-1′,3′-dihydrospiro[azetidine-3,2′-inden]-1-yl)cyclobutanecarboxylic acid] | 1000 to 10000 | > 1000 | < 1000

Results, then the compound that gave them:

EC50 [1] [nM] | EC50 [2] [nM] | EC50 [3] [nM] | Structure (SMILES)
≤ 10 | > 1000 | < 1000 | CC1CCC(C#Cc2ccc3c(c2)CC2(C3)CN(C3CC(C(=O)O)C3)C2)CC1 (stereo not drawn) [Example 102, 3-(5′-((4-methylcyclohexyl)ethynyl)-1′,3′-dihydrospiro[azetidine-3,2′-inden]-1-yl)cyclobutanecarboxylic acid]
1000 to 10000 | > 1000 | < 1000 | COc1ccc(C#Cc2ccc3c(c2)CC2(C3)CN(CC3(C(=O)O)CC3)C2)c(C)c1 [Example 118, 1-((5′-((4-methoxy-2-methylphenyl)ethynyl)-1′,3′-dihydrospiro[azetidine-3,2′-inden]-1-yl)methyl)cyclopropanecarboxylic acid]
1000 to 10000 | > 1000 | < 1000 | Cc1ccccc1CCOc1ccc2c(c1)CC1(C2)CN(CC2(C(=O)O)CC2)C1 [Example 134, 1-((5′-(2-methylphenethoxy)-1′,3′-dihydrospiro[azetidine-3,2′-inden]-1-yl)methyl)cyclopropanecarboxylic acid]
≤ 10 | < 1000 | > 1000 | CC(C)Oc1ccc(C#Cc2ccc3c(c2)CC2(C3)CN(CC3(C(=O)O)CC3)C2)cc1 [Example 113, 1-((5′-((4-isopropoxyphenyl)ethynyl)-1′,3′-dihydrospiro[azetidine-3,2′-inden]-1-yl)methyl)cyclopropanecarboxylic acid]
10 to 100 | > 1000 | < 1000 | O=C(O)CN1CC2(Cc3ccc(OCc4ccc(Br)cc4Cl)cc3C2)C1 [Example 22, 2-(5′-((4-bromo-2-chlorobenzyl)oxy)-1′,3′-dihydrospiro[azetidine-3,2′-inden]-1-yl)acetic acid]
≤ 10 | > 1000 | < 1000 | O=C(O)C1(CN2CC3(Cc4ccc(OC5CCc6cccc(Cl)c65)cc4C3)C2)CC1 (stereo not drawn) [Example 129, 1-((5′-((7-chloro-2,3-dihydro-1H-inden-1-yl)oxy)-1′,3′-dihydrospiro[azetidine-3,2′-inden]-1-yl)methyl)cyclopropanecarboxylic acid]
≤ 10 | > 1000 | < 1000 | O=C(O)C1(CN2CC3(Cc4ccc(OCc5c(F)cccc5C5CC5)cc4C3)C2)CC1 [Example 131, 1-((5′-((2-cyclopropyl-6-fluorobenzyl)oxy)-1′,3′-dihydrospiro[azetidine-3,2′-inden]-1-yl)methyl)cyclopropanecarboxylic acid]
1000 to 10000 | > 1000 | < 1000 | CCOc1ccc(COc2ccc3c(c2)CC2(C3)CN(CC3(C(=O)O)CC3)C2)c(F)c1F [Example 123, 1-((5′-((4-ethoxy-2,3-difluorobenzyl)oxy)-1′,3′-dihydrospiro[azetidine-3,2′-inden]-1-yl)methyl)cyclopropanecarboxylic acid]
≤ 10 | < 1000 | > 1000 | CC(C)Oc1ccc(C#Cc2ccc3c(c2)CC2(C3)CN(CC(=O)O)C2)cn1 [Example 75, 2-(5′-((6-isopropoxypyridin-3-yl)ethynyl)-1′,3′-dihydrospiro[azetidine-3,2′-inden]-1-yl)acetic acid]
≤ 10 | > 1000 | < 1000 | CCc1cccc(F)c1COc1ccc2c(c1)CC1(C2)CN(CC(=O)O)C1 [Example 21, 2-(5′-((2-ethyl-6-fluorobenzyl)oxy)-1′,3′-dihydrospiro[azetidine-3,2′-inden]-1-yl)acetic acid]
1000 to 10000 | > 1000 | > 1000 | O=C(O)C1CC(N2CC3(Cc4ccc(OCC5CCCOC5)cc4C3)C2)C1 (stereo not drawn) [Example 5, 3-(5′-((tetrahydro-2H-pyran-3-yl)methoxy)-1′,3′-dihydrospiro[azetidine-3,2′-inden]-1-yl)cyclobutanecarboxylic acid]
